Results: the supplement of paper PMC10307832

Key:
Assay in all cases: relative viability (nuclei count vs DMSO), 5 days (fraction); higher = more cells survive
[1] = compound: C1CNCCC1C2=CC(=NN2)C3=CC=NC=C3 + O=C(c1cc(Cc2n[nH]c(=O)c3ccccc23)ccc1F)N1CCN(C(=O)C2CC2)CC1 [Olaparib] (partner 8 µM)
Method in brief: (§1)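 Each reported value is a median over duplicate plates. It expresses relative viability: treated-well nuclei count divided by vehicle-well nuclei count. Lung cancer cell lines in 1536-well plates were dosed by pin tool a day after seeding, alone with one drug or with a fixed anchor-drug dose plus five library-drug doses (not always all listed) in √10 steps, and nuclei were counted after 5 days.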

Tanzisertib + Decitabine = compound: O[C@H]1CC[C@H](Nc2ncc3nc(Nc4c(F)cc(F)cc4F)n([C@H]4CCOC4)c3n2)CC1 [Tanzisertib] + Nc1ncn([C@H]2C[C@H](O)[C@@H](CO)O2)c(=O)n1 [Decitabine] (partner 2 µM)
Method in brief: as §1

[2] = compound: C[C@@H](N)c1ccc(C(=O)Nc2ccnc3[nH]ccc23)cc1 + O=C(CCCCCCC(=O)Nc1ccccc1)NO [Vorinostat] (partner 1 µM)
Method in brief: as §1

[3] = compound: C[C@@H](N)c1ccc(C(=O)Nc2ccnc3[nH]ccc23)cc1 + CS(=O)(=O)N1CCN(Cc2cc3nc(-c4cccc5[nH]ncc45)nc(N4CCOCC4)c3s2)CC1 [Pictilisib] (partner 1 µM)
Method in brief: as §1

UMC-11
relative viability ([1]; first compound 0.08 µM): 0.403 | relative viability ([1]; first compound 0.8 µM): 0.379 | relative viability ([1]; first compound 2.53 µM): 0.436 | relative viability ([1]; first compound 8 µM): 0.365 | relative viability (Tanzisertib + Decitabine; first compound 0.08 µM): 0.662 | relative viability (Tanzisertib + Decitabine; first compound 0.253 µM): 0.688 | relative viability (Tanzisertib + Decitabine; first compound 0.8 µM): 0.654 | relative viability (Tanzisertib + Decitabine; first compound 2.53 µM): 0.852 | relative viability (Tanzisertib + Decitabine; first compound 8 µM): 0.85 | relative viability ([2]; first compound 0.04 µM): 0.459 | relative viability ([2]; first compound 0.1265 µM): 0.514 | relative viability ([2]; first compound 0.4 µM): 0.515 | relative viability ([2]; first compound 1.265 µM): 0.504 | relative viability ([2]; first compound 4 µM): 0.356 | relative viability ([3]; first compound 0.04 µM): 0.715 | relative viability ([3]; first compound 0.1265 µM): 0.759 | relative viability ([3]; first compound 0.4 µM): 0.93 | relative viability ([3]; first compound 1.265 µM): 0.177 | relative viability ([3]; first compound 4 µM): 0.767
